# According to PMC11025159 (Journal of Translational Medicine, 2024):
# Several values for one entry are separate records, joined by “and”; a condition that tells them apart may be missing. Equal entries are not always repeated. Structures can show the parent of a compound that is named as a salt.
# What was measured:
# DHT-induced AGA mice = assay: Hair regrowth in DHT-induced AGA mice model (topical, 28 days); type: in vivo, C57BL/6J mice
# Method: (§1) C57BL/6 J mice (male) were obtained from CSIR-IIIM Animal House at 7 weeks of age. We used a DHT-induced AGA mice model for this study. […] At the end of the experiment, skin samples were collected and preserved in 10% neutral buffered formalin for tissue sectioning and staining using haematoxylin and eosin (H&E). The histopathological examinations were performed under the 10× and 40× objectives of light microscope (Magnus, Mx21i).
# Dorsal skin samples from C57BL/6J mice were shaved and collected for histological and molecular analyses on Days 7, 14, 21, and 28. The full-thickness skin tissue was fixed in a 10% neutral buffered formalin solution (Sigma) overnight and subsequently dehydrated for embedding in paraffin. Haematoxylin and eosin (H&E) staining was performed on the skin tissue, and digital photomicrographs were taken from the representative areas using light microscope (Magnus, Mx21i).
# The quantification of anagen initiation was assessed by observing changes in the dorsal skin colour of C57BL/6 mice, a phenomenon closely linked to the onset of the anagen phase. Anagen quantification was done by employing threshold analysis on dorsal skin colouration using ImageJ. The darkening of the skin, attributed to melanogenesis, strongly correlates with the progression of anagen. This analysis is visually depicted as a heatmap using GraphPad Prism 9.5 Software.
# [1] = Body weight, biochemical and haematological parameters in DHT-induced AGA mice (0.5% testosterone then topical treatment); type: in vivo, C57BL/6J mice; conditions: for LYMPH: unit assumed
# Method: The experiments were performed on C57BL/6 J and Athymic nude mice (NU/J Foxn1^nu) of 6–7 weeks of age obtained from Animal House Facility, CSIR-Indian Institute of Integrative Medicine (IIIM), Jammu, India. […] The animals were provided with ad libitum feed (standard pellet diet) and autoclaved RO water throughout the study. The body weight of mice was measured after seven days before treatment.
# as §1
# Every two weeks during the experimental period, mice were anesthetized, and the blood samples were collected into tubes containing heparin sodium to detect the total and differential white blood cells, haemoglobin, red blood cell, platelet count, mean corpuscular haemoglobin, mean corpuscular volume, red blood cell volume, mean platelet volume, and analyzed using an automated haematology analyzer (Model: XT1800i; Make: Sysmex).
# Every two weeks during the experimental period, mice and rats were anesthetized, and blood samples were collected into non-heparinized tubes and then centrifuged at 1000 rpm at 4 °C for 10 min to obtain the serum. The biochemical parameters, including total protein, aspartate aminotransferase, alanine aminotransferase, total protein, albumin, total bilirubin, direct bilirubin, glucose, total cholesterol, triglyceride, low-density lipoprotein, high-density lipoprotein, creatinine, and uric acid, were measured using an automatic biochemical analyzer (Model: EM360; Make: Erba Mannheim).
# [2] = tested on: athymic nude mice (NU/J Foxn1nu); assay: Hair growth in athymic nude mice (topical, 28 days); type: in vivo; conditions: for H&E skin histopathology finding / hair follicle grade: day 28
# Method: The groups are as follows: Group 1-Control (untreated), Group 2-Vehicle control, Group 3-tofacitinib citrate (0.8 mg/Kg), Group 4-tofacitinib citrate (0.08 mg/Kg), Group 5-MJ04 (0.08 mg/Kg), Group 6-MJ04 (0.04 mg/Kg), Group 7-MJ04 (0.016 mg/Kg), Group 8-baricitinib (0.1 mg/Kg), Group 9-baricitinib (0.04 mg/Kg), and Group 10-baricitinib (0.02 mg/Kg). At the end of the experiment, skin samples were collected and preserved in 10% neutral buffered formalin for tissue sectioning and staining using haematoxylin and eosin (H&E). The histopathological examinations were performed under the 10× and 40× objectives of light microscope (Magnus, Mx21i), and hair follicles were graded on a scale of 0 to 4 (++++).
# The skin samples collected from athymic nude mice (NU/J Foxn1^nu) were preserved in 10% neutral buffered formalin and processed for tissue sectioning. The skin sections (10 µm) of nude mice were stained using haematoxylin and eosin (H&E) and viewed under 10× and 40× objectives of the light microscope (Magnus, Mx21i). The histopathological examination of the samples was performed, and the hair follicles in the skin sections were graded on a scale of 0 to 4 (++++).
# [3] = Body weight of athymic nude mice during topical treatment; type: in vivo, athymic nude mice (NU/J Foxn1nu); conditions: individual mice
# Method: . The groups are as follows: Group 1-Control (untreated), Group 2-Vehicle control, Group 3-tofacitinib citrate (0.8 mg/Kg), Group 4-tofacitinib citrate (0.08 mg/Kg), Group 5-MJ04 (0.08 mg/Kg), Group 6-MJ04 (0.04 mg/Kg), Group 7-MJ04 (0.016 mg/Kg), Group 8-baricitinib (0.1 mg/Kg), Group 9-baricitinib (0.04 mg/Kg), and Group 10-baricitinib (0.02 mg/Kg). At the end of the experiment, skin samples were collected and preserved in 10% neutral buffered formalin for tissue sectioning and staining using haematoxylin and eosin (H&E). […]
structure (smiles),measurement,setting,value
"C[C@@H]1CCN(C(=O)CC#N)C[C@@H]1N(C)c1ncnc2[nH]ccc12 [Tofacitinib, tofacitinib citrate, reference compound]",H&E skin histopathology finding,"DHT-induced AGA mice; 0.08mg/kg, Days 7, 14, 21, 28",Minimal epidermal thinning with few hair follicles on Days 7 and 14 and increased hair follicles on Days 21 and 28
same,hair follicle phase (histopathology),"DHT-induced AGA mice; skin samples days 7, 14, 21, 28",at least in the anagen IIIc-IV phase
same,entry into the anagen phase,DHT-induced AGA mice; topical once a day in presence of testosterone,rapid entry into the anagen phase within seven days of treatment
same,mice displaying intense skin darkening followed by hair growth,DHT-induced AGA mice; within 10 days of treatment,around 90%
same,ALP,"[1]; Day 21, 0.08 mg/Kg",198 U/L
same,ALT/SGPT,"[1]; Day 21, 0.08 mg/Kg",82 U/L
same,AST/SGOT,"[1]; Day 21, 0.08 mg/Kg",80 U/L
same,Cholesterol,"[1]; Day 21, 0.08 mg/Kg",216 mg/dL
same,Creatine,"[1]; Day 21, 0.08 mg/Kg",0.49 mg/dL
same,HCT,"[1]; Day 21, 0.08 mg/Kg",45%
same,HDL,"[1]; Day 21, 0.08 mg/Kg",110 mg/dL
same,LDL,"[1]; Day 21, 0.08 mg/Kg",134 mg/dL
same,MCHC,"[1]; Day 21, 0.08 mg/Kg",28 g/dL
same,MCV,"[1]; Day 21, 0.08 mg/Kg",51 fL
same,NEUT,"[1]; Day 21, 0.08 mg/Kg",20.2%
same,PLT,"[1]; Day 21, 0.08 mg/Kg",587 103/μl
same,RBC,"[1]; Day 21, 0.08 mg/Kg",9.2 1012/l
same,Total protein,"[1]; Day 21, 0.08 mg/Kg",5.0 g/dL
same,Triglyceride,"[1]; Day 21, 0.08 mg/Kg",141 mg/dL
same,Urea,"[1]; Day 21, 0.08 mg/Kg",49 mg/dL
same,WBC,"[1]; Day 21, 0.08 mg/Kg",3.0 103/μl
same,LYMPH,"[1]; Day 21, 0.08 mg/Kg",78.8%
same,ALP,"[1]; Day 21, 0.8 mg/Kg",132 U/L
same,ALT/SGPT,"[1]; Day 21, 0.8 mg/Kg",56 U/L
same,AST/SGOT,"[1]; Day 21, 0.8 mg/Kg",111 U/L
same,Cholesterol,"[1]; Day 21, 0.8 mg/Kg",211 mg/dL
same,Creatine,"[1]; Day 21, 0.8 mg/Kg",0.63 mg/dL
same,HCT,"[1]; Day 21, 0.8 mg/Kg",42%
same,HDL,"[1]; Day 21, 0.8 mg/Kg",116 mg/dL
same,LDL,"[1]; Day 21, 0.8 mg/Kg",126 mg/dL
same,MCHC,"[1]; Day 21, 0.8 mg/Kg",29 g/dL
same,MCV,"[1]; Day 21, 0.8 mg/Kg",52 fL
same,NEUT,"[1]; Day 21, 0.8 mg/Kg",21.5%
same,PLT,"[1]; Day 21, 0.8 mg/Kg",917 103/μl
same,RBC,"[1]; Day 21, 0.8 mg/Kg",8.1 1012/l
same,Total protein,"[1]; Day 21, 0.8 mg/Kg",5.2 g/dL
same,Triglyceride,"[1]; Day 21, 0.8 mg/Kg",118 mg/dL
same,Urea,"[1]; Day 21, 0.8 mg/Kg",71 mg/dL
same,WBC,"[1]; Day 21, 0.8 mg/Kg",1.7 103/μl
same,LYMPH,"[1]; Day 21, 0.8 mg/Kg",77.9%
same,ALP,"[1]; Day 28, 0.08 mg/Kg",199 U/L
same,ALT/SGPT,"[1]; Day 28, 0.08 mg/Kg",177 U/L
same,AST/SGOT,"[1]; Day 28, 0.08 mg/Kg",136 U/L
same,Cholesterol,"[1]; Day 28, 0.08 mg/Kg",238 mg/dL
same,Creatine,"[1]; Day 28, 0.08 mg/Kg",0.13 mg/dL
same,HCT,"[1]; Day 28, 0.08 mg/Kg",47.0%
same,HDL,"[1]; Day 28, 0.08 mg/Kg",133 mg/dL
same,HGB,"[1]; Day 28, 0.08 mg/Kg",14 g/dL
same,LDL,"[1]; Day 28, 0.08 mg/Kg",111 mg/dL
same,MCHC,"[1]; Day 28, 0.08 mg/Kg",29.0 g/dL
same,MCV,"[1]; Day 28, 0.08 mg/Kg",58.0 fL
same,PLT,"[1]; Day 28, 0.08 mg/Kg",1475 103/μl
same,RBC,"[1]; Day 28, 0.08 mg/Kg",8.1 106/μl
same,Total protein,"[1]; Day 28, 0.08 mg/Kg",6.5 g/dL
same,Triglyceride,"[1]; Day 28, 0.08 mg/Kg",135 mg/dL
same,Urea,"[1]; Day 28, 0.08 mg/Kg",62 mg/dL
same,WBC,"[1]; Day 28, 0.08 mg/Kg",6.7 103/μl
same,ALP,"[1]; Day 28, 0.8 mg/Kg",252 U/L
same,ALT/SGPT,"[1]; Day 28, 0.8 mg/Kg",134 U/L
same,AST/SGOT,"[1]; Day 28, 0.8 mg/Kg",125 U/L
same,Cholesterol,"[1]; Day 28, 0.8 mg/Kg",240 mg/dL
same,Creatine,"[1]; Day 28, 0.8 mg/Kg",0.12 mg/dL
same,HCT,"[1]; Day 28, 0.8 mg/Kg",31.0%
same,HDL,"[1]; Day 28, 0.8 mg/Kg",128 mg/dL
same,HGB,"[1]; Day 28, 0.8 mg/Kg",11 g/dL
same,LDL,"[1]; Day 28, 0.8 mg/Kg",113 mg/dL
same,MCHC,"[1]; Day 28, 0.8 mg/Kg",34.0 g/dL
same,MCV,"[1]; Day 28, 0.8 mg/Kg",60.0 fL
same,PLT,"[1]; Day 28, 0.8 mg/Kg",1053 103/μl
same,RBC,"[1]; Day 28, 0.8 mg/Kg",5.1 106/μl
same,Total protein,"[1]; Day 28, 0.8 mg/Kg",6.1 g/dL
same,Triglyceride,"[1]; Day 28, 0.8 mg/Kg",132 mg/dL
same,Urea,"[1]; Day 28, 0.8 mg/Kg",50 mg/dL
same,WBC,"[1]; Day 28, 0.8 mg/Kg",5.6 103/μl
same,H&E skin histopathology finding,[2]; 0.08 mg/kg,Mild epidermal thickening with the increased number of hair follicles
same,hair follicle grade,[2]; 0.08 mg/kg,++++ (graded on a scale ranging from 0 to 4 (++++))
same,H&E skin histopathology finding,[2]; 0.8 mg/kg,Mild epidermal thickening with the increased number of hair follicles
same,hair follicle grade,[2]; 0.8 mg/kg,++++ (graded on a scale ranging from 0 to 4 (++++))
same,early onset of hair,[2]; topical,12 days
same,Weight of nude mice (NU/J Foxn1nu),"[3]; 0.8 mg/kg (first group), DAY 1",18.1 and 18.4 and 18.7 and 19.3 and 18.2
same,Weight of nude mice (NU/J Foxn1nu),"[3]; 0.8 mg/kg (first group), DAY 7",20.1 and 20.5 (2×) and 19.3 and 19.8
same,Weight of nude mice (NU/J Foxn1nu),"[3]; 0.8 mg/kg (first group), DAY 14",21.8 and 22.3 and 22.4 and 21.1 and 21.4
same,Weight of nude mice (NU/J Foxn1nu),"[3]; 0.8 mg/kg (first group), DAY 21",23.7 and 23.9 and 24.1 and 23.1 and 23.3
same,Weight of nude mice (NU/J Foxn1nu),"[3]; 0.8 mg/kg (first group), DAY 28",24.6 and 25.3 and 25.4 and 26.1 and 24.5
same,Weight of nude mice (NU/J Foxn1nu),"[3]; 0.8 mg/kg (second group so printed), DAY 1",18.4 and 18.5 (2×) and 18.9 and 19.3
same,Weight of nude mice (NU/J Foxn1nu),"[3]; 0.8 mg/kg (second group so printed), DAY 7",19.3 and 19.5 (2×) and 20.6 and 20.7
same,Weight of nude mice (NU/J Foxn1nu),"[3]; 0.8 mg/kg (second group so printed), DAY 14",21.1 and 21.4 and 21.3 and 21.8 and 22.1
same,Weight of nude mice (NU/J Foxn1nu),"[3]; 0.8 mg/kg (second group so printed), DAY 21",22.6 and 22.9 and 23.4 (2×) and 23.8
same,Weight of nude mice (NU/J Foxn1nu),"[3]; 0.8 mg/kg (second group so printed), DAY 28",24.8 and 25.1 and 25.3 and 25.4 and 26.1
